Results: ChEMBL document CHEMBL1139959, “Optimization of triaryl bis-sulfones as cannabinoid-2 receptor ligands” (Bioorg Med Chem Lett, 2007)

Molecular target: Cannabinoid receptor 2 (Homo sapiens) (UniProt P34972)
Test: Binding affinity to CB2 receptor

Chain of Cannabinoid receptor 2 (Homo sapiens) (P34972 whole entry, looked up): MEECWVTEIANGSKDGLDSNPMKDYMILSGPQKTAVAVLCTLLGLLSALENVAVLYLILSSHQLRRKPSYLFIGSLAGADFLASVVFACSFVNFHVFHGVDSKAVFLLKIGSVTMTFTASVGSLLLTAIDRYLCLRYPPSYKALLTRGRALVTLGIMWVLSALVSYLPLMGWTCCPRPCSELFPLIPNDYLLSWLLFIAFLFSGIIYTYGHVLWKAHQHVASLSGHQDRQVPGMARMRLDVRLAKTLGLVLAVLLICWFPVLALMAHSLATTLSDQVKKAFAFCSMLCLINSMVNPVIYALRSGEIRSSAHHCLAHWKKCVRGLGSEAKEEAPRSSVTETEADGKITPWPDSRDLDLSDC

Row | SMILES | Ki
1 | C[C@H](NC(=O)C(F)(F)F)c1ccc(S(=O)(=O)c2ccc(Cl)cc2S(=O)(=O)c2ccccc2F)cc1 | 3.7 nM
2 | CCCS(=O)(=O)c1cc(Cl)ccc1S(=O)(=O)c1ccc([C@H](C)NS(C)(=O)=O)cc1 | 308 nM
3 | C[C@H](NS(=O)(=O)C(F)(F)F)c1ccc(S(=O)(=O)c2ccc(C(F)(F)F)cc2S(=O)(=O)c2ccccc2F)cc1 | 2.5 nM
4 | C[C@H](NCCC(F)(F)F)c1ccc(S(=O)(=O)c2ccc(Cl)cc2S(=O)(=O)c2ccccc2F)cc1 | 17 nM
5 | C[C@H](NCC(F)(F)F)c1ccc(S(=O)(=O)c2ccc(Cl)cc2S(=O)(=O)c2ccccc2F)cc1 | 7 nM
6 | C[C@H](NS(C)(=O)=O)c1ccc(S(=O)(=O)c2ccc(Cl)cc2S(=O)(=O)c2cccc[n+]2[O-])cc1 | 119 nM
7 | C[C@H](NS(C)(=O)=O)c1ccc(S(=O)(=O)c2ccc(Cl)cc2S(=O)(=O)c2ccccc2F)cc1 | 1.3 nM
8 | C[C@H](NS(C)(=O)=O)c1ccc(S(=O)(=O)c2ccc(Cl)cc2S(=O)(=O)N(C)C)cc1 | 1270 nM
9 | C[C@H](N)c1ccc(S(=O)(=O)c2ccc(Cl)cc2S(=O)(=O)c2ccccc2F)cc1 | 3950 nM
10 | CNS(=O)(=O)c1cc(Cl)ccc1S(=O)(=O)c1ccc([C@H](C)NS(C)(=O)=O)cc1 | 1250 nM
11 | C[C@H](NS(C)(=O)=O)c1ccc(S(=O)(=O)c2ccc(Cl)cc2S(=O)(=O)c2cccc3cccnc23)cc1 | 204 nM
12 | C[C@H](NS(C)(=O)=O)c1ccc(S(=O)(=O)c2ccc(Cl)cc2S(=O)(=O)c2ccccn2)cc1 | 2.9 nM
13 | C[C@H](NS(=O)(=O)C(F)(F)F)c1ccc(S(=O)(=O)c2ccc(Cl)cc2S(=O)(=O)c2c(F)cccc2N2CCOCC2)cc1 | 140 nM
14 | C[C@H](NS(=O)(=O)C(F)(F)F)c1ccc(S(=O)(=O)c2ccc(OC(F)(F)F)cc2S(=O)(=O)c2ccccc2F)cc1 | 5 nM
15 | C[C@H](NS(=O)(=O)C(F)(F)F)c1ccc(S(=O)(=O)c2ccc(Cl)cc2S(=O)(=O)c2c(N)cccc2F)cc1 | 4.1 nM
16 | C[C@H](NS(=O)(=O)C(F)(F)F)c1ccc(S(=O)(=O)c2ccc(O)cc2S(=O)(=O)c2ccccc2F)cc1 | 1.3 nM
17 | CNc1cccc(F)c1S(=O)(=O)c1cc(Cl)ccc1S(=O)(=O)c1ccc([C@H](C)NS(=O)(=O)C(F)(F)F)cc1 | 22 nM
18 | C[C@H](NS(=O)(=O)C(F)(F)F)c1ccc(S(=O)(=O)c2ccccc2S(=O)(=O)c2ccccc2F)cc1 | 25 nM
19 | C[C@H](NS(=O)(=O)C(F)(F)F)c1ccc(S(=O)(=O)c2ccc(N)cc2S(=O)(=O)c2ccccc2F)cc1 | 10 nM
20 | C[C@H](NS(=O)(=O)C(F)(F)F)c1ccc(S(=O)(=O)c2ccc(N3CCNCC3)cc2S(=O)(=O)c2ccccc2F)cc1 | 1100 nM
